The text below walks through data of patent US20240343707A1, “SUBSTITUTED PHENYL ETHYNYL PYRIMIDINES AS POTENT INHIBITORS OF ALPHAVIRUSES” (Southern Research Institute, priority 2023, published 2024).

Assay type in all cases: cell-based
In data set [1] the test system is CHIKV. Briefly: CHIKV virus titer reduction (VTR) assay in NHDF cells. The following applies: Chikungunya virus; for EC90: read-out: CHIKV EC90 (μM); for log reduction at 10 µM: read-out: CHIKV VTR (logs).
For the next data set, the system named is VEEV (TC-83). Put plainly: microbe, parasite or virus in culture. The note with it: Venezuelan equine encephalitis virus, read-out: VEEV EC50 (μM).
The next data set can be described thus: in vitro. The note with it: human.
Data set [2] concerns CHIKV. Briefly: microbe, parasite or virus in culture. The note with it: Chikungunya virus, read-out: CHIK EC50 (μM).
For the next data set, the system named is VEEV. Briefly: microbe, parasite or virus in culture. The following applies: Venezuelan equine encephalitis virus, NHDF; for EC90: read-out: VEEV EC90 (μM); for log reduction at 10 µM: read-out: VEEV VTR (logs).

A word on the EC90: it is the concentration needed for an effect of 90%. For orientation: EC50 means the midpoint of the concentration-response curve. As usually defined, the CC50 is the concentration at which the toxic effect on the cells reaches its halfway point. A low value points to greater toxicity to the cells. Consider `O=C1CCc2cc(NC(=O)c3cccc(C#Cc4ncccn4)c3)ccc2N1` [Compound 1, N-(2-oxo-3,4-dihydro-1H-quinolin-6-yl)-3-(2-pyrimidin-2-ylethynyl)benzamide], for which the EC90 stood at 0.18 µM in the data set on CHIKV [1] and 0.11 µM in the data set on VEEV. In addition, the log reduction at 10 µM in the data set on CHIKV [1] is 3.15; with VEEV, 7.85. For the same compound, the figures for the EC50 in the data set with VEEV (TC-83) and in the data set on CHIKV [2] were 1.6 µM and 0.23 µM, respectively. In the data set “in vitro”, the cytotoxic concentration (CC50) is above 40000 nM.
Regarding `O=C1CCCc2cc(NC(=O)c3cccc(C#Cc4ncccn4)c3)ccc2N1` [Compound 2, N-(2-oxo-1,3,4,5-tetrahydro-1-benzazepin-7-yl)-3-(2-pyrimidin-2-ylethynyl)benzamide], the EC90 in the data set on CHIKV [1] was determined as 0.15 µM; in the data set on VEEV, 0.55 µM. Moreover, the log reduction at 10 µM in the data set on CHIKV [1] turned out to be 7.7; with VEEV, 7.77. The EC50 in the data set on VEEV (TC-83) was 2.27 µM; in the data set on CHIKV [2], 0.51 µM. In addition, the CC50 in the data set “in vitro” is above 40000 nM.
Turning to `CN1C(=O)CCc2cc(NC(=O)c3cccc(C#Cc4ncccn4)c3)ccc21` [Compound 3, N-(1-methyl-2-oxo-3,4-dihydroquinolin-6-yl)-3-(2-pyrimidin-2-ylethynyl)benzamide], the figures for the 90% effect concentration (EC90) with CHIKV [1] and with VEEV were 0.13 µM and 0.33 µM, respectively. For the same compound, the log reduction at 10 µM was 8 in the data set on CHIKV [1] and 8.58 in the data set on VEEV. Moreover, the EC50 with VEEV (TC-83) is 0.77 µM; in the data set with CHIKV [2], 0.3 µM. The compound further displayed a cytotoxic concentration (CC50) in “in vitro” of 35300 nM.
As for `O=C1Cc2cc(NC(=O)c3cccc(C#Cc4ncccn4)c3)ccc2N1` [Compound 4, N-(2-oxoindolin-5-yl)-3-(2-pyrimidin-2-ylethynyl)benzamide], the EC90 worked out at 0.095 µM in the data set on CHIKV [1] and 0.32 µM in the data set with VEEV. In addition, the log reduction at 10 µM with CHIKV [1] was determined as 10; with VEEV, 3.19. Moreover, the 50% effective concentration (EC50) with VEEV (TC-83) amounted to 2.11 µM; in the data set with CHIKV [2], 0.66 µM. The CC50 in “in vitro” is above 40000 nM.
`CCOP(=O)(OCC)c1ccc(NC(=O)c2cccc(C#Cc3ncccn3)c2)cc1` [Compound 6, N-(4-diethoxyphosphorylphenyl)-3-(2-pyrimidin-2-ylethynyl)benzamide]: the EC50 is 0.43 µM in the data set with VEEV (TC-83) and 0.44 µM with CHIKV [2]. In “in vitro”, the CC50 was above 40000 nM.
On to `COc1cc(C#Cc2ncccn2)cc(C(=O)Nc2ccc3c(c2)CCC(=O)N3)c1` [Compound 14, 3-methoxy-N-(2-oxo-3,4-dihydro-1H-quinolin-6-yl)-5-(2-pyrimidin-2-ylethynyl)benzamide], for which the EC50 in the data set with VEEV (TC-83) was determined as 0.44 µM; in the data set on CHIKV [2], 0.16 µM. This compound also yielded a CC50 in the data set “in vitro” above 40000 nM.
`COc1cc(C#Cc2ncccn2)cc(C(=O)Nc2ccc3c(c2)CCC(=O)N3C)c1` [Compound 15, 3-methoxy-N-(1-methyl-2-oxo-3,4-dihydroquinolin-6-yl)-5-(2-pyrimidin-2-ylethynyl)benzamide]: the EC50 was found to be 0.33 µM in the data set on VEEV (TC-83) and 0.2 µM in the data set with CHIKV [2]. Moreover, the midpoint of cytotoxicity in the data set “in vitro”, the CC50, lay at 26000 nM.
The like results for `O=C1CCc2cc(NC(=O)c3cc(C#Cc4ncccn4)cc(OC(F)(F)F)c3)ccc2N1` [Compound 16, N-(2-oxo-3,4-dihydro-1H-quinolin-6-yl)-3-(2-pyrimidin-2-ylethynyl)-5-(trifluoromethoxy)benzamide] were, in that order, 0.16 µM, 0.19 µM and above 40000 nM.
As for `O=C(Nc1ccc(N2CCCCC2=O)cc1)c1cccc(C#Cc2ncccn2)c1` [Compound 24, N-[4-(2-oxo-1-piperidyl)phenyl]-3-(2-pyrimidin-2-ylethynyl)benzamide], in the data set with CHIKV [1], the concentration for an effect of 90% (EC90) was 0.63 µM and the log reduction at 10 µM stood at 4.18. For the same compound, in the data set on VEEV, the concentration for an effect of 90% (EC90) came to 2.44 µM and the log reduction at 10 µM came out at 4.6.
